From patent US6147097A, “Imidazole derivatives as anti-HIV agents” (Shionogi & Co., Ltd., priority 1994, dated 2000)
≈ marks a conversion by molar mass, not a printed value. Like-named read-outs stand apart in the source and are kept apart here.

Experiments:
HIV (HTLV-IIIB strain) = experiment: microbe, parasite or virus in culture; format: cell-based; conditions: Human immunodeficiency virus 1, IIIB, MT4, 120 h
Method in brief: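 Protection from virus was read as viable-cell MTT conversion to formazan after 5 days at 37° C. The cultures contained MT-4 cells (3.5×10^4/well), compound dilutions and 60 pfu HIV per well.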

[1] = cytotoxicity in MT-4 cells (MTT, culture medium in place of HIV); format: cell-based; conditions: human
Method in brief: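 Uninfected readout: compound-treated MT-4 cultures, 3.5×10^4 cells/well, received medium in place of virus and were kept 5 days at 37° C. Viability measured by 1 h MTT reduction, solubilized formazan read at 560/690 nm relative to control wells.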

[2] = molecular target: T1, purified recombinant HIV-1 reverse transcriptase (Human immunodeficiency virus type 1 group M subtype B, UniProt P04585); experiment: reverse transcriptase inhibition, poly(rA)/(dT) template primer, [3H]dTTP uptake; format: biochemical
T1 construct: purified recombinant HIV-1 reverse transcriptase; made in house; host or cells: Escherichia coli
Method in brief: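 Inhibition reported as percent reduction of [3H]dTTP incorporation relative to solvent control, after 1 h at 37 °C at pH 8.3. Recombinant RT from E. coli, poly(rA) template with oligo(dT) primer, 4 μM unlabeled dTTP as substrate; product collected on DEAE filter mats.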

[3] = MT-4 cells, 60 pfu HIV per well, 37° C., 5 days, MTT, Tables 1 and 2, read-out: EC50
[4] = MT-4 cells, no virus, 37° C., 5 days, MTT, Table 3, read-out: CC50

Row | Structure (SMILES) | EC50 (HIV (HTLV-IIIB strain); [3]) [µg/mL] | CC50 at 120 h ([1]; mt-4 cells) [µg/mL] | IC50 [2] [µM] | CC50 at 120 h [1, 4] [µg/mL] | EC50 (HIV (HTLV-IIIB strain)) [µg/mL]
1 | CC(C)c1nc(COC(N)=O)n(CCOC(N)=O)c1Sc1cc(Cl)cc(Cl)c1 [Compound I-134, 1-(2-carbamoyloxyethyl)-2-carbamoyloxymethyl-5-(3,5-dichlorophenylthio)-4-isopropyl-1H-imidazole] | 0.0013 (≈ 0.00291 µM) | 12.5 to 25 (≈ 27.9 to 55.9 µM) | 1.54 | – | –
2 | CCn1c(CO)nc(C(C)C)c1Sc1cccc(F)c1 [Compound I-37, [1-ethyl-5-(3-fluorophenylthio)-4-isopropyl-1H-imidazol-2-yl]methanol] | 0.0005 (≈ 0.0017 µM) | – | 0.204 | 25 (≈ 84.9 µM) | –
3 | CC(C)c1nc(CC(=O)O)n(C)c1Sc1cc(Cl)cc(Cl)c1 [Compound I-80, [5-(3,5-dichlorophenylthio)-4-isopropyl-1-nethyl-1H-imidazol-2-yl]acetic acid] | 0.5 to 1 (≈ 1.39 to 2.78 µM) | – | 3.06 | 10 to 100 (≈ 27.8 to 278 µM) | –
4 | Cc1cc(C)cc(Sc2c(C(C)C)nc(C)n2C)c1 [Compound I-2, 5-(3,5-dimethylphenylthio)-1,2-dimethyl-4-isopropyl-1H-imidazole] | 0.008 (≈ 0.0292 µM) | – | 7.65 | 25 (≈ 91.1 µM) | –
5 | CC(C)c1nc(CCCOCc2ccccc2)n(CCO)c1Sc1cc(Cl)cc(Cl)c1 [Compound 136e, 2-(2-(3-benzyloxypropyl)-5-(3,5-dichlorophenylthio)-4-isopropyl-1H-imidazol-1-yl)-ethanol] | 0.5 to 1 (≈ 1.04 to 2.09 µM) | 6.3 to 12.5 (≈ 13.1 to 26.1 µM) | > 209 | – | –
6 | Cc1cc(C)cc([S+]([O-])c2c(C(C)C)nc(C)n2C)c1 (stereo not drawn) [Compound I-104, 5-(3,5-dimethylphenylsulfinyl)-4-isopropyl-1,2-dimethyl-1H-imidazole] | 1 to 10 (≈ 3.44 to 34.4 µM) | – | > 344 | 10 to 100 (≈ 34.4 to 344 µM) | –
7 | C=CCn1c(COC(N)=O)nc(C(C)C)c1Sc1cccc([N+](=O)[O-])c1 [Compound I-48, 1-allyl-2-carbamoyloxymethyl-4-isopropyl-5-(3-nitrophenylthio)-1H-imidazole] | 0.016 (≈ 0.0425 µM) | – | 1.2 | 25 to 50 (≈ 66.4 to 133 µM) | –
8 | CC(C)c1nc(COC(N)=O)n(CCc2ccccn2)c1Sc1cc(Cl)cc(Cl)c1 [Compound I-129, 2-carbamoyloxymethyl-5-(3,5-dichlorophenylthio)-4-isopropyl-1-(2-(2-pyridyl)ethyl)-1H-imidazole] | 0.06 (≈ 0.129 µM) | 12.5 to 25 (≈ 26.9 to 53.7 µM) | 76.9 | – | –
9 | CC(C)c1nc(CO)n(C)c1Cc1cccc(Cl)c1 [Compound I-102, [5-(3-chlorobezyl)-4-isopropyl-1-methyl-1H-imidazol-2-yl]methanol] | 0.5 to 1 (≈ 1.79 to 3.59 µM) | – | 86.4 | 1 to 10 (≈ 3.59 to 35.9 µM) | –
10 | CCn1c(CCO)nc(C(C)C)c1Sc1cc(Cl)cc(Cl)c1 [Compound 123a, 2-[5-(3,5-dichlorophenylthio)-1-ethyl-4-isopropyl-1H-imidazol-2-yl]ethanol] | 0.0006 (≈ 0.00167 µM) | 6.3 to 12.5 (≈ 17.5 to 34.8 µM) | 0.417 | – | –
11 | CC(C)c1nc(CCOC(N)=O)n(Cc2ccc([N+](=O)[O-])cc2)c1Sc1cc(Cl)cc(Cl)c1 [Compound 128a, 2-(2-carbamoyloxyethyl)-5-(3,5-dichlorophenylthio)-4-isopropyl-1-(p-nitrobenzyl)-1H-imidazole] | 3.1 to 6.3 (≈ 6.09 to 12.4 µM) | 6.3 (≈ 12.4 µM) | 104 | – | –
12 | CC(C)c1nc(CO)n(CCCc2ccccn2)c1Sc1cc(Cl)cc(Cl)c1 [Compound 112b, 5-(3,5-dichlorophenylthio)-4-isopropyl-2-hydroxymethyl-1-(3-(2-pyridyl)propyl)-1H-imidazole] | < 0.008 | 6.3 to 12.5 (≈ 14.4 to 28.6 µM) | 5.96 | – | –
13 | CC(C)c1nc(CN)n(C)c1Sc1cccc([N+](=O)[O-])c1 [Compound I-67, 2-aminomethyl-4-isopropyl-1-methyl-5-(3-nitrophenylthio)-1H-imidazole] | 0.13 to 0.25 (≈ 0.424 to 0.816 µM) | – | 17.6 | 12.5 to 25 (≈ 40.8 to 81.6 µM) | –
14 | CC(C)c1nc(CCCOC(N)=O)n(Cc2ccncc2)c1Sc1cc(Cl)cc(Cl)c1 [Compound I-150, 2-(3-carbamoyloxypropyl)-5-(3,5-dichlorophenylthio)-4-isopropyl-1-(pyridin-4-yl)methyl-1H-imidazole] | 0.008 (≈ 0.0167 µM) | 6.3 to 12.5 (≈ 13.1 to 26.1 µM) | 1.88 | – | –
15 | CC(C)c1nc(CN)n(C)c1Sc1ccccc1 [Compound I-74, 2-aminomethyl-4-isopropyl-1-methyl-5-phenylthioimidazole] | 0.25 (≈ 0.956 µM) | – | 21.8 | 12.5 to 25 (≈ 47.8 to 95.6 µM) | –
16 | CC(C)c1nc(CO)n(CCCc2ccccc2)c1Sc1cc(Cl)cc(Cl)c1 [Compound I-122, 5-(3,5-dichlorophenylthio)-2-hydroxymethyl-4-isopropyl-1-(3-phenylpropyl)-1H-imidazole] | 0.008 (≈ 0.0184 µM) | 6.3 to 12.5 (≈ 14.5 to 28.7 µM) | 7.12 | – | –
17 | CC(C)c1nc(CCO)n(Cc2ccccc2N)c1Sc1cc(Cl)cc(Cl)c1 [Compound I-143] | 0.008 (≈ 0.0183 µM) | 12.5 (≈ 28.6 µM) | 77 | – | –
18 | CC(=N)NCc1nc(C(C)C)c(Sc2cc(Cl)cc(Cl)c2)n1C [Compound I-84] | 1 (≈ 2.69 µM) | – | > 269 | 1 to 10 (≈ 2.69 to 26.9 µM) | –
19 | CCOC(=O)Cn1c(COCc2ccccc2)nc(C(C)C)c1Sc1cc(Cl)cc(Cl)c1 [Compound 118b] | 0.25 (≈ 0.507 µM) | 12.5 to 25 (≈ 25.3 to 50.7 µM) | > 203 | – | –
20 | Cc1cc(C)cc(Sc2c(C(C)C)nc(C=NN)n2C)c1 [Compound I-11, 5-(3,5-dimethylphenylthio)-4-isopropyl-1-methyl-1H-imidazole-2-carbaldehyde hydrazone] | 0.25 (≈ 0.827 µM) | – | 54.6 | 1 to 10 (≈ 3.31 to 33.1 µM) | –
21 | CC(C)c1nc(COC(N)=O)n(C)c1Cc1cc(Cl)cc(Cl)c1 [Compound I-103, 2-carbamoyloxymethyl-5-(3,5-dichlorobenzyl)-4-isopropyl-1-methyl-1H-imidazole] | – | – | 19.1 | 10 to 100 (≈ 28.1 to 281 µM) | 0.5 (≈ 1.4 µM)
22 | CC(C)c1nc(CN)n(Cc2ccccc2)c1Sc1cc(Cl)cc(Cl)c1 [Compound I-70, 2-aminomethyl-1-benzyl-5-(3,5-dichlorophenylthio)-4-isopropylimidazole] | 0.03 (≈ 0.0738 µM) | – | 4.43 | 6.3 to 12.5 (≈ 15.5 to 30.8 µM) | –
23 | CC(C)c1nc(CO)n(Cc2ccccc2N)c1Sc1cc(Cl)cc(Cl)c1 [Compound I-119, 1-(o-aminobenzyl)-5-(3,5-dichlorophenylthio)-2-hydroxymethyl-4-isopropyl-1H-imidazole] | 0.13 to 0.25 (≈ 0.308 to 0.592 µM) | 3.1 (≈ 7.34 µM) | 7.81 | – | –
24 | CC(C)c1c(Sc2cccc(Cl)c2)nc(CO)n1C [Compound I-38, [4-(3-chlorophenylthio)-5-isopropyl-1-methyl-1H-imidazol-2-yl]methanol] | 6.3 (≈ 21.2 µM) | – | 273 | 12.5 to 25 (≈ 42.1 to 84.2 µM) | –
25 | CC(C)c1nc(CO)n(CC(C)(C)O)c1Sc1cc(Cl)cc(Cl)c1 [Compound I-153, 5-(3,5-dichlorophenylthio)-2-hydroxymethyl-1-(2-hydroxy-2-methylpropyl)-4-isopropyl-1H-imidazole] | 0.016 (≈ 0.0411 µM) | 12.5 (≈ 32.1 µM) | 25.7 | – | –
26 | CC(C)c1nc(CCOC(N)=O)n(Cc2ccncc2)c1Sc1cc(Cl)cc(Cl)c1 [Compound I-138, 2-(2-carbamoyloxyethyl)-5-(3,5-dichlorophenylthio)-4-isopropyl-1-(pyridin-4-yl)methyl-1H-imidazole] | 0.008 (≈ 0.0172 µM) | 12.5 (≈ 26.9 µM) | 3.22 | – | –
